Twelve compounds from patent US10780090B2, “Heteroaryl compounds useful as inhibitors of SUMO activating enzyme” (Millennium Pharmaceuticals, Inc., priority 2014, dated 2020) can be followed below.

Bounds are passed on as bounds.

The assay concerns the target recombinant human SAE enzyme (Homo sapiens (Human), UniProt Q9UBT2). Description: SAE HTRF enzyme assay. The format is biochemical. The conditions noted are these: for Percent Inhibition: SAE inhibition at compound concentration 0.111 μM; for IC50: SAE inhibition, class symbols, legend in nM. Put shortly: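 0.11 nM SAE incubated with 0.5 μM ATP, 0.01 μM Ubc9-GST and 0.125 μM Sumo-Flag in HEPES pH 7.5, MgCl2, GSH, BSA, ±inhibitor, 105 min at 24° C. EDTA stop; Eu-cryptate anti-Flag/XL-APC anti-GST HTRF read after 2 h. Values given as single-concentration % inhibition or IC50.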
Background: In TR-FRET formats the signal depends on donor and acceptor labels being close together.

Sequence of recombinant human SAE enzyme (Q9UBT2 whole entry): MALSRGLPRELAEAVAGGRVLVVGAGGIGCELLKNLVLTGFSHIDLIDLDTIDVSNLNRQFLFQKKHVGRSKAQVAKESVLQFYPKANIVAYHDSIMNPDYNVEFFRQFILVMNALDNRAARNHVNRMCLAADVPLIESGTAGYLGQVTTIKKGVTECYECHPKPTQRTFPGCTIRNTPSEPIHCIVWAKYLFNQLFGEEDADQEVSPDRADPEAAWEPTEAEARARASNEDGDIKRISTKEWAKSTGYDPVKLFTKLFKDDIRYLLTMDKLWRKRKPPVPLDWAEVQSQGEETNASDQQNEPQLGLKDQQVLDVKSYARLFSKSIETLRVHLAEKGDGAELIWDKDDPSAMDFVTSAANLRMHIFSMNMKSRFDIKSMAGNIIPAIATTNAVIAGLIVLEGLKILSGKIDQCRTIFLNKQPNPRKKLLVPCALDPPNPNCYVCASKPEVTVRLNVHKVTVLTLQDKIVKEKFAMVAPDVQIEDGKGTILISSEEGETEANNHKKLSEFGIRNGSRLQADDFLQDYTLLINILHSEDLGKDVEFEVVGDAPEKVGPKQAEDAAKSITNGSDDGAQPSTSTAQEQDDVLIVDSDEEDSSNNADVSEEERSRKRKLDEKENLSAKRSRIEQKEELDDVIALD
Sequence of recombinant human SAE enzyme (Q9UBE0 whole entry partner): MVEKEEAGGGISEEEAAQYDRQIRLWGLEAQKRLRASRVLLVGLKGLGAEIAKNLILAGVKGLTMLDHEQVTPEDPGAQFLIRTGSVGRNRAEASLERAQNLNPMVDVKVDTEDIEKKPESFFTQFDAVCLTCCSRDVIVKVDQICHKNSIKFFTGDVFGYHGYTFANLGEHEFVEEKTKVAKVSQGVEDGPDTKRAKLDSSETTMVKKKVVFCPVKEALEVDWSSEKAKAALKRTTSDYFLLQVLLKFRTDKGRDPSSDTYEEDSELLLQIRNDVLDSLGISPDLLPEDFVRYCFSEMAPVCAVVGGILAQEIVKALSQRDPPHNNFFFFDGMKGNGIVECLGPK

In the case of `Cc1nc2c(s1)CCO[C@H]2c1cc(C(=O)c2cncnc2N[C@@H]2C[C@H](COS(N)(=O)=O)[C@@H](O)C2)sc1C` (mixture of isomers) [I-287, [(1R,2S,4R)-2-hydroxy-4-{[5-({5-methyl-4-[(4S)-2-methyl-6,7-dihydro-4H-pyrano[3,4-d][1,3]thiazol-4-yl]-2-thienyl}carbonyl)pyrimidin-4-yl]amino}cyclopentyl]methyl sulfamate and [(1R,2S,4R)-2-hydroxy-4-{[5-({5-methyl-4-[(4R)-2-methyl-6,7-dihydro-4H-pyrano[3,4-d][1,3]thiazol-4-yl]-2-thienyl}carbonyl)pyrimidin-4-yl]amino}cyclopentyl]methyl sulfamate], the “Percent Inhibition” value came to 97% and the IC50 (in general, the midpoint of a concentration-inhibition curve) was under 10 nM.
For the compound `Cc1sc(C(=O)c2cncnc2N[C@@H]2C[C@H](COS(N)(=O)=O)[C@@H](O)C2)cc1[C@@H]1OCC(F)(F)c2ccc(Cl)cc21.Cc1sc(C(=O)c2cncnc2N[C@@H]2C[C@H](COS(N)(=O)=O)[C@@H](O)C2)cc1[C@H]1OCC(F)(F)c2ccc(Cl)cc21` (mixture of isomers) [I-288, [(1R,2S,4R)-4-{[5-({4-[(1R)-7-chloro-4,4-difluoro-3,4-dihydro-1H-isochromen-1-yl]-5-methyl-2-thienyl}carbonyl)pyrimidin-4-yl]amino}-2-hydroxycyclopentyl]methyl sulfamate and [(1R,2S,4R)-4-{[5-({4-[(1S)-7-chloro-4,4-difluoro-3,4-dihydro-1H-isochromen-1-yl]-5-methyl-2-thienyl}carbonyl)pyrimidin-4-yl]amino}-2-hydroxycyclopentyl]methyl sulfamate], the “Percent Inhibition” value was found to be 99% and the IC50 is under 10 nM.
Consider `NS(=O)(=O)OC[C@H]1C[C@@H](Nc2ncncc2C(=O)c2cc([C@@H]3OCC(F)(F)c4ccc(Cl)cc43)cs2)C[C@@H]1O.NS(=O)(=O)OC[C@H]1C[C@@H](Nc2ncncc2C(=O)c2cc([C@H]3OCC(F)(F)c4ccc(Cl)cc43)cs2)C[C@@H]1O` (mixture of isomers) [I-289, [(1R,2S,4R)-4-{[5-({4-[(1R)-7-chloro-4,4-difluoro-3,4-dihydro-1H-isochromen-1-yl]-2-thienyl}carbonyl)pyrimidin-4-yl]amino}-2-hydroxycyclopentyl]methyl sulfamate and [(1R,2S,4R)-4-{[5-({4-[(1S)-7-chloro-4,4-difluoro-3,4-dihydro-1H-isochromen-1-yl]-2-thienyl}carbonyl)pyrimidin-4-yl]amino}-2-hydroxycyclopentyl]methyl sulfamate], for which the “Percent Inhibition” value came out at 98% and the IC50 is under 10 nM.
For `Cc1ccc2c(n1)[C@H](c1cc(C(=O)c3cncnc3N[C@@H]3C[C@H](COS(N)(=O)=O)[C@@H](O)C3)sc1C)OCC2` (mixture of isomers) [I-291, [(1R,2S,4R)-2-hydroxy-4-{[5-({5-methyl-4-[(8S)-2-methyl-5,8-dihydro-6H-pyrano[3,4-b]pyridin-8-yl]-2-thienyl}carbonyl)pyrimidin-4-yl]amino}cyclopentyl]methyl sulfamate and [(1R,2S,4R)-2-hydroxy-4-{[5-({5-methyl-4-[(8R)-2-methyl-5,8-dihydro-6H-pyrano[3,4-b]pyridin-8-yl]-2-thienyl}carbonyl)pyrimidin-4-yl]amino}cyclopentyl]methyl sulfamate], the “Percent Inhibition” value is 99% and the IC50 is under 10 nM.
For `NS(=O)(=O)OC[C@H]1C[C@@H](Nc2ncncc2C(=O)c2cc([C@@H]3OCC(F)(F)c4ccccc43)cs2)C[C@@H]1O` (mixture of isomers) [I-293, [(1R,2S,4R)-4-{[5-({4-[(1R)-4,4-difluoro-3,4-dihydro-1H-isochromen-1-yl]-2-thienyl}carbonyl)pyrimidin-4-yl]amino}-2-hydroxycyclopentyl]methyl sulfamate and [(1R,2S,4R)-4-{[5-({4-[(1S)-4,4-difluoro-3,4-dihydro-1H-isochromen-1-yl]-2-thienyl}carbonyl)pyrimidin-4-yl]amino}-2-hydroxycyclopentyl]methyl sulfamate] the same measures were 98% and under 10 nM.
As for `NS(=O)(=O)OC[C@H]1C[C@@H](Nc2ncncc2C(=O)c2cc([C@H]3NCCc4ccccc43)cs2)[C@H](O)[C@@H]1O` (mixture of isomers) [I-295, [(1R,2R,3S,4R)-2,3-dihydroxy-4-{[5-({4-[(1S)-1,2,3,4-tetrahydroisoquinolin-1-yl]-2-thienyl}carbonyl)pyrimidin-4-yl]amino}cyclopentyl]methyl sulfamate and [(1R,2R,3S,4R)-2,3-dihydroxy-4-{[5-({4-[(1R)-1,2,3,4-tetrahydroisoquinolin-1-yl]-2-thienyl}carbonyl)pyrimidin-4-yl]amino}cyclopentyl]methyl sulfamate], the “Percent Inhibition” value was determined as 99% and the half-maximal inhibitory concentration (IC50) was under 10 nM.
On to `Cc1sc(C(=O)c2cncnc2N[C@@H]2C[C@H](COS(N)(=O)=O)[C@@H](O)C2)cc1[C@@H]1OCCn2c(C)cnc21` (mixture of isomers) [I-296, [(1R,2S,4R)-2-hydroxy-4-{[5-({5-methyl-4-[(8S)-3-methyl-5,6-dihydro-8H-imidazo[2,1-c][1,4]oxazin-8-yl]-2-thienyl}carbonyl)pyrimidin-4-yl]amino}cyclopentyl]methyl sulfamate and [(1R,2S,4R)-2-hydroxy-4-{[5-({5-methyl-4-[(8R)-3-methyl-5,6-dihydro-8H-imidazo[2,1-c][1,4]oxazin-8-yl]-2-thienyl}carbonyl)pyrimidin-4-yl]amino}cyclopentyl]methyl sulfamate], for which the “Percent Inhibition” value is listed as 98% and the 50% inhibitory concentration (IC50) was under 10 nM.
With `Cc1sc(C(=O)c2cncnc2N[C@@H]2C[C@H](COS(N)(=O)=O)[C@@H](O)C2)cc1[C@@H]1OCCc2ccc(C(F)(F)F)nc21.Cc1sc(C(=O)c2cncnc2N[C@@H]2C[C@H](COS(N)(=O)=O)[C@@H](O)C2)cc1[C@H]1OCCc2ccc(C(F)(F)F)nc21` (mixture of isomers) [I-297, [(1R,2S,4R)-2-hydroxy-4-{[5-({5-methyl-4-[(8S)-2-(trifluoromethyl)-5,8-dihydro-6H-pyrano[3,4-b]pyridin-8-yl]-2-thienyl}carbonyl)pyrimidin-4-yl]amino}cyclopentyl]methyl sulfamate and [(1R,2S,4R)-2-hydroxy-4-{[5-({5-methyl-4-[(8R)-2-(trifluoromethyl)-5,8-dihydro-6H-pyrano[3,4-b]pyridin-8-yl]-2-thienyl}carbonyl)pyrimidin-4-yl]amino}cyclopentyl]methyl sulfamate], the “Percent Inhibition” value came to 96% and the IC50 is under 10 nM.
As for `Cc1sc(C(=O)c2cncnc2N[C@@H]2C[C@H](COS(N)(=O)=O)[C@@H](O)C2)cc1[C@@H]1OCCc2oc(Cl)cc21` (mixture of isomers) [I-298, [(1R,2S,4R)-4-{[5-({4-[(4R)-2-chloro-6,7-dihydro-4H-furo[3,2-c]pyran-4-yl]-5-methyl-2-thienyl}carbonyl)pyrimidin-4-yl]amino}-2-hydroxycyclopentyl]methyl sulfamate and [(1R,2S,4R)-4-{[5-({4-[(4S)-2-chloro-6,7-dihydro-4H-furo[3,2-c]pyran-4-yl]-5-methyl-2-thienyl}carbonyl)pyrimidin-4-yl]amino}-2-hydroxycyclopentyl]methyl sulfamate], the “Percent Inhibition” value was determined as 96% and the 50% inhibitory concentration (IC50) is under 10 nM.
As for `NS(=O)(=O)OC[C@H]1C[C@@H](Nc2ncncc2C(=O)c2cc([C@H]3OCCc4c(Cl)cccc43)cs2)C[C@@H]1O` (mixture of isomers) [I-301, [(1R,2S,4R)-4-{[5-({4-[(1R)-5-chloro-3,4-dihydro-1H-isochromen-1-yl]-2-thienyl}carbonyl)pyrimidin-4-yl]amino}-2-hydroxycyclopentyl]methyl sulfamate and [(1R,2S,4R)-4-{[5-({4-[(1S)-5-chloro-3,4-dihydro-1H-isochromen-1-yl]-2-thienyl}carbonyl)pyrimidin-4-yl]amino}-2-hydroxycyclopentyl]methyl sulfamate], the “Percent Inhibition” value worked out at 99% and the IC50 is under 10 nM.
In the case of `NS(=O)(=O)OC[C@H]1C[C@@H](Nc2ncncc2C(=O)c2cc([C@H]3NCCc4ccccc43)c(Cl)s2)[C@H](O)[C@@H]1O` (mixture of isomers) [I-302, [(1R,2R,3S,4R)-4-{[5-({5-chloro-4-[(1S)-1,2,3,4-tetrahydroisoquinolin-1-yl]-2-thienyl}carbonyl)pyrimidin-4-yl]amino}-2,3-dihydroxycyclopentyl]methyl sulfamate and [(1R,2R,3S,4R)-4-{[5-({5-chloro-4-[(1R)-1,2,3,4-tetrahydroisoquinolin-1-yl]-2-thienyl}carbonyl)pyrimidin-4-yl]amino}-2,3-dihydroxycyclopentyl]methyl sulfamate], the “Percent Inhibition” value was 100% and the IC50 was under 10 nM.
For `Cc1sc(C(=O)c2cncnc2N[C@@H]2C[C@H](COS(N)(=O)=O)[C@@H](O)C2)cc1[C@@H]1OCCc2ccc(Cl)c(F)c21` (mixture of isomers) [I-303, [(1R,2S,4R)-4-{[5-({4-[(1R)-7-chloro-8-fluoro-3,4-dihydro-1H-isochromen-1-yl]-5-methyl-2-thienyl}carbonyl)pyrimidin-4-yl]amino}-2-hydroxycyclopentyl]methyl sulfamate and [(1R,2S,4R)-4-{[5-({4-[(1S)-7-chloro-8-fluoro-3,4-dihydro-1H-isochromen-1-yl]-5-methyl-2-thienyl}carbonyl)pyrimidin-4-yl]amino}-2-hydroxycyclopentyl]methyl sulfamate], the “Percent Inhibition” value stood at 99% and the IC50 was under 10 nM.
